Test results from patent US8211662B2, “Nitroreductase enzymatic substrates” (Biomerieux, priority 2007, dated 2012).

How the values were obtained:
[1] = system: Bacillus subtilis NCTC 9372; assay: Nitroreductase detection on Columbia agar, colonies read under UV; type: cell-based; parameters: key: − = no fluorescence detected; +/− = weak fluorescence; + = medium fluorescence; ++ = strong fluorescence; conditions: 100 mg/l in Columbia agar, 24 h 37° C., UV 360-365 nm
Experimental: (§1) A mass of 40 mg of each substrate was dissolved in 4 ml of dimethylformamide (DMF). This solution was entirely taken up in 400 ml of Columbia agar autoclaved beforehand and kept molten at 50° C. The final concentration for each substrate was 100 mg/l.
(§2) Each of the media was distributed into Petri dishes 90 mm in diameter, in a proportion of 20 ml per dish.
(§3) 18 microorganism strains derived from collections and belonging to various species of bacteria and of yeasts were inoculated onto these media by semi-quantitative isolation of 10 μl of a suspension at 0.5 McFarland diluted to 1/20. The media were incubated for 24 hours at 37° C., then the colonies formed were examined visually under UV illumination at 360-365 nm.

[2] = system: Candida albicans ATCC 90028; assay: as above; type: cell-based; parameters: key: − = no fluorescence detected; +/− = weak fluorescence; + = medium fluorescence; ++ = strong fluorescence; conditions: 100 mg/l in Columbia agar, 24 h 37° C., UV 360-365 nm
Experimental: as §1, §2, §3

[3] = system: Enterobacter cloacae NCTC 11936; assay: as above; type: cell-based; parameters: key: − = no fluorescence detected; +/− = weak fluorescence; + = medium fluorescence; ++ = strong fluorescence; conditions: 100 mg/l in Columbia agar, 24 h 37° C., UV 360-365 nm
Experimental: as §1, §2, §3

[4] = system: Enterococcus faecalis NCTC 775; assay: as above; type: cell-based; parameters: key: − = no fluorescence detected; +/− = weak fluorescence; + = medium fluorescence; ++ = strong fluorescence; conditions: 100 mg/l in Columbia agar, 24 h 37° C., UV 360-365 nm
Experimental: as §1, §2, §3

[5] = system: Escherichia coli NCTC 10418; assay: as above; type: cell-based; parameters: key: − = no fluorescence detected; +/− = weak fluorescence; + = medium fluorescence; ++ = strong fluorescence; conditions: 100 mg/l in Columbia agar, 24 h 37° C., UV 360-365 nm
Experimental: as §1, §2, §3

[6] = system: Listeria monocytogenes NCTC 11994; assay: as above; type: cell-based; parameters: key: − = no fluorescence detected; +/− = weak fluorescence; + = medium fluorescence; ++ = strong fluorescence; conditions: 100 mg/l in Columbia agar, 24 h 37° C., UV 360-365 nm
Experimental: as §1, §2, §3

[7] = system: Pseudomonas aeruginosa NCTC 10662; assay: as above; type: cell-based; parameters: key: − = no fluorescence detected; +/− = weak fluorescence; + = medium fluorescence; ++ = strong fluorescence; conditions: 100 mg/l in Columbia agar, 24 h 37° C., UV 360-365 nm
Experimental: as §1, §2, §3

[8] = system: Serratia marcescens NCTC 10211; assay: as above; type: cell-based; parameters: key: − = no fluorescence detected; +/− = weak fluorescence; + = medium fluorescence; ++ = strong fluorescence; conditions: 100 mg/l in Columbia agar, 24 h 37° C., UV 360-365 nm
Experimental: as §1, §2, §3

[9] = system: Staphylococcus aureus NCTC 6571; assay: as above; type: cell-based; parameters: key: − = no fluorescence detected; +/− = weak fluorescence; + = medium fluorescence; ++ = strong fluorescence; conditions: 100 mg/l in Columbia agar, 24 h 37° C., UV 360-365 nm
Experimental: as §1, §2, §3

[10] = system: Staphylococcus epidermidis NCTC 11047; assay: as above; type: cell-based; parameters: key: − = no fluorescence detected; +/− = weak fluorescence; + = medium fluorescence; ++ = strong fluorescence; conditions: 100 mg/l in Columbia agar, 24 h 37° C., UV 360-365 nm
Experimental: as §1, §2, §3

[11] = system: Streptococcus pyogenes NCTC 8306; assay: as above; type: cell-based; parameters: key: − = no fluorescence detected; +/− = weak fluorescence; + = medium fluorescence; ++ = strong fluorescence; conditions: 100 mg/l in Columbia agar, 24 h 37° C., UV 360-365 nm
Experimental: as §1, §2, §3

[12] = system: Yersinia enterocolitica NCTC 11176; assay: as above; type: cell-based; parameters: key: − = no fluorescence detected; +/− = weak fluorescence; + = medium fluorescence; ++ = strong fluorescence; conditions: 100 mg/l in Columbia agar, 24 h 37° C., UV 360-365 nm
Experimental: as §1, §2, §3

[13] = system: Acinetobacter baumanii ATCC 19606; assay: as above; type: cell-based; parameters: key to Intensity of fluorescence, Acinetobacter baumanii ATCC 19606 / Intensity of the fluorescence, Acinetobacter baumanii ATCC 19606: − = no fluorescence detected; +/− = weak fluorescence; + = medium fluorescence; ++ = strong fluorescence; conditions: 100 mg/l in Columbia agar, 24 h 37° C., UV 360-365 nm
Experimental: as §1, §2, §3

[14] = system: Salmonella typhimurium NCTC 74; assay: as above; type: cell-based; parameters: key to Intensity of fluorescence, Salmonella typhimurium NCTC 74 / F: fluorescence (intensity), Salmonella typhimurium NCTC 74 / Intensity of the fluorescence, Salmonella typhimurium NCTC 74: − = no fluorescence detected; +/− = weak fluorescence; + = medium fluorescence; ++ = strong fluorescence
Experimental: as §1, §2, §3

[15] = system: Morganella morganii 462403 (wild); assay: as above; type: cell-based; parameters: key to Intensity of fluorescence, Morganella morganii 462403 / F: fluorescence (intensity), Morganella morganii 462403 (wild) / Intensity of the fluorescence, Morganella morganii 462403 (wild): − = no fluorescence detected; +/− = weak fluorescence; + = medium fluorescence; ++ = strong fluorescence; conditions: 100 mg/l in Columbia agar, 24 h 37° C., UV 360-365 nm
Experimental: as §1, §2, §3

MRSA NCTC 11939 = assay: as above; type: cell-based, Staphylococcus aureus; parameters: key: − = no fluorescence detected; +/− = weak fluorescence; + = medium fluorescence; ++ = strong fluorescence; conditions: 100 mg/l in Columbia agar, 24 h 37° C., UV 360-365 nm
Experimental: as §1, §2, §3

[16] = system: Candida glabrata NCPF 3943; assay: as above; type: cell-based; parameters: key to Intensity of fluorescence, Candida glabrata NCPF3943 / F: fluorescence (intensity), Candida glabrata NCPF 3943 / Intensity of the fluorescence, Candida glabrata NCPF 3943: − = no fluorescence detected; +/− = weak fluorescence; + = medium fluorescence; ++ = strong fluorescence; conditions: 100 mg/l in Columbia agar, 24 h 37° C., UV 360-365 nm
Experimental: as §1, §2, §3

[17] = system: S. aureus (including MRSA) 10 strains; assay: Detection of various strains of S. aureus in the presence of substrates; type: cell-based, Staphylococcus aureus; conditions: for No. of strains detected, S. aureus (including MRSA): 10 strains
S. epidermidis 2 strains = assay: as above; type: cell-based
Experimental: as §1, §2
18 microorganism strains derived from collections and belonging to various species of bacteria and of yeasts were inoculated onto these media by semi-quantitative isolation of 10 μl of a suspension at 0.5 McFarland diluted to 1/20. […]

Staph spp 12 strains = assay: as above; type: cell-based
Enterococcus 6 strains = assay: as above; type: cell-based

Compound: COc1cc(-c2nc3ccccc3o2)c([N+](=O)[O-])cc1OC [Substrate 6]
- Intensity of fluorescence, Bacillus subtilis NCTC 9372 [1]: −
- Intensity of fluorescence, Candida albicans ATCC 90028 [2]: −
- Intensity of fluorescence, Enterobacter cloacae NCTC 11936 [3]: +
- Intensity of fluorescence, Enterococcus faecalis NCTC 775 [4]: −
- Intensity of fluorescence, Escherichia coli NCTC 10418 [5]: +
- Intensity of fluorescence, Listeria monocytogenes NCTC 11994 [6]: −
- Intensity of fluorescence, Pseudomonas aeruginosa NCTC 10662 [7]: −
- Intensity of fluorescence, Serratia marcescens NCTC 10211 [8]: +
- Intensity of fluorescence, Staphylococcus aureus NCTC 6571 [9]: +
- Intensity of fluorescence, Staphylococcus epidermidis NCTC 11047 [10]: −
- Intensity of fluorescence, Streptococcus pyogenes NCTC 8306 [11]: −
- Intensity of fluorescence, Yersinia enterocolitica NCTC 11176 [12]: −
- Intensity of fluorescence, Acinetobacter baumanii ATCC 19606 [13]: −
- Intensity of fluorescence, Salmonella typhimurium NCTC 74 ([14]; 100 mg/l in Columbia agar, 24 h 37° C., UV 360-365 nm): −
- Salmonella typhimurium result with the substrate ([14]; table 2): negative
- Intensity of fluorescence, Morganella morganii 462403 [15]: +/−
- Intensity of fluorescence, Staphylococcus aureus NCTC 11939 (MRSA NCTC 11939): +
- Intensity of fluorescence, Candida glabrata NCPF3943 [16]: −
- Distinguishing or identifying Staphylococcus aureus strains, in particular MRSA, from most of the other Gram-positive bacterial strains [17]: make it possible to distinguish or identify the Staphylococcus aureus strains
- No. of strains detected, S. aureus (including MRSA) ([17]; 24 h): 10
- No. of strains detected, S. aureus (including MRSA) ([17]; 48 h): 10
- No. of strains detected, S. epidermidis (S. epidermidis 2 strains; 24 h): 0
- No. of strains detected, S. epidermidis (S. epidermidis 2 strains; 48 h): 2
- No. of strains detected, Staph spp (Staph spp 12 strains; 24 h): 12
- No. of strains detected, Staph spp (Staph spp 12 strains; 48 h): 12
- No. of strains detected, Enterococcus (Enterococcus 6 strains; 24 h): 0
- No. of strains detected, Enterococcus (Enterococcus 6 strains; 48 h): 1
